Measurements: patent US12673944B2, “Compounds having inhibitory activity against glucosylceramide synthase or pharmaceutically acceptable salt thereof, processes for preparing the same, and pharmaceutical compositions comprising the same” (YUHAN CORPORATION, priority 2019, dated 2026)
Where two headings read alike, the source gives them in different places.

Key:
[1] = tested on: GM1 production in Jurkat cells; experiment: cells; type: cell-based
[2] = molecular target: T1, glucosylceramide synthase (GCS) (Homo sapiens, UniProt Q16739); experiment: GCS enzyme inhibition assay (A549 cell lysate, NBD C6-ceramide, HPLC fluorescence); type: biochemical; details: inhibitory activity against GCS, 37° C., 90 minutes
T1 construct: The obtained supernatant was used; host or cells: A549 cells (lysate supernatant after sonication)
T1 sequence (Q16739 1-394): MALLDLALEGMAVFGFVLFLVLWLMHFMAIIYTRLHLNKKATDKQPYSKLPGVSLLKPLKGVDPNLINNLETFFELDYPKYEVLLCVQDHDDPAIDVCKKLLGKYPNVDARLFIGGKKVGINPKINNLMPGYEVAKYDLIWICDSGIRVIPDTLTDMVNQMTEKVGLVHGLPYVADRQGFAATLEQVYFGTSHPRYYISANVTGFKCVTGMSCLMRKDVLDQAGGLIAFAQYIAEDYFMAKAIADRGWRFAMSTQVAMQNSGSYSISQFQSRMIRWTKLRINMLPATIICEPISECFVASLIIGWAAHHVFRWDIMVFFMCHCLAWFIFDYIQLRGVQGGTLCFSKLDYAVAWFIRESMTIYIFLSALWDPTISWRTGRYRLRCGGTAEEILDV
Procedure, shortened: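 A549 cell lysate (50 mM HEPES pH 7.3) served as GCS source; reactions ran 90 min at 37° C, were stopped with chloroform/methanol and lipids extracted. Activity taken as GlcCer/(Cer+GlcCer) peak area, normalised between DMSO and ibiglustat controls.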

SMILES	IC50 ([1]; Homo sapiens, Jurkat, 72 h) [pM]	IC50 [2] [pM]	IC50 [1] [pM]
CC1(C)COc2cc(-c3ccc4c(c3)OCCCO4)ccc2C1NC(=O)O[C@@H]1CN2CCC1CC2 (stereo partly drawn) [Example 190, (S)-quinuclidin-3-yl (7-(3,4-dihydro-2H-benzo[b][1,4]dioxepin-7-yl)-3,3-dimethylchroman-4-yl)carbamate]	30	290	–
CC1(C)COc2cc(-c3ccc4nsnc4c3)ccc2C1NC(=O)O[C@@H]1CN2CCC1CC2 (stereo partly drawn) [Example 191, (S)-quinuclidin-3-yl (7-(benzo[c][1,2,5]thiadiazol-5-yl)-3,3-dimethylchroman-4-yl)carbamate]	310	630	–
CC1(C)COc2cc(-c3cncc4ccccc34)ccc2C1NC(=O)O[C@@H]1CN2CCC1CC2 (stereo partly drawn) [Example 192, (S)-quinuclidin-3-yl (7-(isoquinolin-4-yl)-3,3-dimethylchroman-4-yl)carbamate]	–	920	1350
CC(C)(C)c1ccc(-c2ccc3c(c2)OCC(C)(C)C3NC(=O)O[C@@H]2CN3CCC2CC3)cc1 (stereo partly drawn) [Example 193, (S)-quinuclidin-3-yl (7-(4-(tert-butyl)phenyl)-3,3-dimethylchroman-4-yl)carbamate]	460	510	–
Cc1cc(-c2ccc3c(c2)OCC(C)(C)C3NC(=O)O[C@@H]2CN3CCC2CC3)ccc1N1CCOCC1 (stereo partly drawn) [Example 194, (S)-quinuclidin-3-yl (3,3-dimethyl-7-(3-methyl-4-morpholinophenyl)chroman-4-yl)carbamate]	1810	600	–
CC1(C)COc2cc(-c3ccc(Cl)c(Cl)c3)ccc2C1NC(=O)O[C@@H]1CN2CCC1CC2 (stereo partly drawn) [Example 195, (S)-quinuclidin-3-yl (7-(3,4-dichlorophenyl)-3,3-dimethylchroman-4-yl)carbamate]	1390	1140	–
Cn1ncc2ccc(-c3ccc4c(c3)OCC(C)(C)C4NC(=O)O[C@@H]3CN4CCC3CC4)cc21 (stereo partly drawn) [Example 196, (S)-quinuclidin-3-yl (3,3-dimethyl-7-(1-methyl-1H-indazol-6-yl)chroman-4-yl)carbamate]	6130	1250	–
CC1(C)COc2cc(-c3ccc4cc[nH]c4c3)ccc2C1NC(=O)O[C@@H]1CN2CCC1CC2 (stereo partly drawn) [Example 197, (S)-quinuclidin-3-yl (7-(1H-indol-6-yl)-3,3-dimethylchroman-4-yl)carbamate]	1990	900	–
CN1CCOc2cc(-c3ccc4c(c3)OCC(C)(C)C4NC(=O)O[C@@H]3CN4CCC3CC4)ccc21 (stereo partly drawn) [Example 198, (S)-quinuclidin-3-yl (3,3-dimethyl-7-(4-methyl-3,4-dihydro-2H-benzo[b][1,4]oxazin-7-yl)chroman-4-yl)carbamate]	1830	660	–
Cc1ccc(-c2ccc3c(c2)OCC(C)(C)C3NC(=O)O[C@@H]2CN3CCC2CC3)cc1C#N (stereo partly drawn) [Example 199, (S)-quinuclidin-3-yl (7-(3-cyano-4-methylphenyl)-3,3-dimethylchroman-4-yl)carbamate]	3630	510	–
CC1(C)COc2cc(-c3cc(F)c(F)cc3F)ccc2C1NC(=O)O[C@@H]1CN2CCC1CC2 (stereo partly drawn) [Example 200, (S)-quinuclidin-3-yl (3,3-dimethyl-7-(2,4,5-trifluorophenyl)chroman-4-yl)carbamate]	1940	490	–
CC1(C)COc2cc(-c3ccc(OC(F)(F)F)cc3)ccc2C1NC(=O)O[C@@H]1CN2CCC1CC2 (stereo partly drawn) [Example 201, (S)-quinuclidin-3-yl (3,3-dimethyl-7-(4-(trifluoromethoxy)phenyl)chroman-4-yl)carbamate]	1120	410	–
CC1(C)COc2cc(-c3ccc(C4CCOCC4)cc3)ccc2C1NC(=O)O[C@@H]1CN2CCC1CC2 (stereo partly drawn) [Example 202, (S)-quinuclidin-3-yl (3,3-dimethyl-7-(4-(tetrahydro-2H-pyran-4-yl)phenyl)chroman-4-yl)carbamate]	470	280	–
COc1cc(-c2ccc3c(c2)OCC(C)(C)C3NC(=O)O[C@@H]2CN3CCC2CC3)ccn1 (stereo partly drawn) [Example 203, (S)-quinuclidin-3-yl (7-(2-methoxypyridin-4-yl)-3,3-dimethylchroman-4-yl)carbamate]	8030	720	–
CC1(C)COc2cc(-c3ccc(N4CCOCC4)c(Cl)c3)ccc2C1NC(=O)O[C@@H]1CN2CCC1CC2 (stereo partly drawn) [Example 205, (S)-quinuclidin-3-yl (7-(3-chloro-4-morpholinophenyl)-3,3-dimethylchroman-4-yl)carbamate]	250	650	–
COc1ccc(-c2ccc3c(c2)OCC(C)(C)C3NC(=O)O[C@@H]2CN3CCC2CC3)cc1 (stereo partly drawn) [Example 206, (S)-quinuclidin-3-yl (7-(4-methoxyphenyl)-3,3-dimethylchroman-4-yl)carbamate]	10	500	–

SMILES	IC50 ([1]; Homo sapiens, Jurkat, 72 h) [pM]	IC50 [2] [pM]	IC50 [1] [pM]
COc1cncc(-c2ccc3c(c2)OCC(C)(C)C3NC(=O)O[C@@H]2CN3CCC2CC3)c1 (stereo partly drawn) [Example 207, (S)-quinuclidin-3-yl (7-(5-methoxypyridin-3-yl)-3,3-dimethylchroman-4-yl)carbamate]	1060	1120	–
CC1(C)COc2cc(-c3cc4ccccc4s3)ccc2C1NC(=O)O[C@@H]1CN2CCC1CC2 (stereo partly drawn) [Example 208, (S)-quinuclidin-3-yl (7-(benzo[b]thiophen-2-yl)-3,3-dimethylchroman-4-yl)carbamate]	2470	1410	–
CCOc1ccc(-c2ccc3c(c2)OCC(C)(C)C3NC(=O)O[C@@H]2CN3CCC2CC3)cc1 (stereo partly drawn) [Example 209, (S)-quinuclidin-3-yl (7-(4-ethoxyphenyl)-3,3-dimethylchroman-4-yl)carbamate]	10	340	–
COc1ccc(-c2ccc3c(c2)OCC(C)(C)C3NC(=O)O[C@@H]2CN3CCC2CC3)cc1C(F)(F)F (stereo partly drawn) [Example 210, (S)-quinuclidin-3-yl (7-(4-methoxy-3-(trifluoromethyl)phenyl)-3,3-dimethylchroman-4-yl)carbamate]	–	1570	18000
CC1(C)COc2cc(-c3ccc(C(F)(F)F)cc3)ccc2C1NC(=O)O[C@@H]1CN2CCC1CC2 (stereo partly drawn) [Example 211, (S)-quinuclidin-3-yl (3,3-dimethyl-7-(4-(trifluoromethyl)phenyl)chroman-4-yl)carbamate]	1410	710	–
CC1(C)COc2cc(-c3cccc4[nH]ncc34)ccc2C1NC(=O)O[C@@H]1CN2CCC1CC2 (stereo partly drawn) [Example 212, (S)-quinuclidin-3-yl (7-(1H-indazol-4-yl)-3,3-dimethylchroman-4-yl)carbamate]	2450	870	–
CC1(C)COc2cc(-c3ccc(Cl)cc3)ccc2C1NC(=O)O[C@@H]1CN2CCC1CC2 (stereo partly drawn) [Example 213, (S)-quinuclidin-3-yl (7-(4-chlorophenyl)-3,3-dimethylchroman-4-yl)carbamate]	30	780	–
CC1(C)COc2cc(-c3ccc(F)cc3)ccc2C1NC(=O)O[C@@H]1CN2CCC1CC2 (stereo partly drawn) [Example 214, (S)-quinuclidin-3-yl (7-(4-fluorophenyl)-3,3-dimethylchroman-4-yl)carbamate]	1810	550	–
COc1ncc(-c2ccc3c(c2)OCC(C)(C)C3NC(=O)O[C@@H]2CN3CCC2CC3)cc1Cl (stereo partly drawn) [Example 215, (S)-quinuclidin-3-yl (7-(5-chloro-6-methoxypyridin-3-yl)-3,3-dimethylchroman-4-yl)carbamate]	2510	1570	–
CN1C(=O)COc2ccc(-c3ccc4c(c3)OCC(C)(C)C4NC(=O)O[C@@H]3CN4CCC3CC4)cc21 (stereo partly drawn) [Example 216, (S)-quinuclidin-3-yl (3,3-dimethyl-7-(4-methyl-3-oxo-3,4-dihydro-2H-benzo[b][1,4]oxazin-6-yl)chroman-4-yl)carbamate]	8580	1510	–
CC1(C)COc2cc(-c3ccc(F)c(F)c3F)ccc2C1NC(=O)O[C@@H]1CN2CCC1CC2 (stereo partly drawn) [Example 217, (S)-quinuclidin-3-yl (3,3-dimethyl-7-(2,3,4-trifluorophenyl)chroman-4-yl)carbamate]	7350	550	–
CC1(C)COc2cc(-c3ccc(OC(F)F)cc3)ccc2C1NC(=O)O[C@@H]1CN2CCC1CC2 (stereo partly drawn) [Example 218, (S)-quinuclidin-3-yl (7-(4-(difluoromethoxy)phenyl)-3,3-dimethylchroman-4-yl)carbamate]	2690	400	–
CC1(C)COc2cc(-c3cccc4ncccc34)ccc2C1NC(=O)O[C@@H]1CN2CCC1CC2 (stereo partly drawn) [Example 219, (S)-quinuclidin-3-yl (3,3-dimethyl-7-(quinolin-5-yl)chroman-4-yl)carbamate]	7580	2260	–
CC1(C)COc2cc(-c3ccc4nonc4c3)ccc2C1NC(=O)O[C@@H]1CN2CCC1CC2 (stereo partly drawn) [Example 220, (S)-quinuclidin-3-yl (7-(benzo[c][1,2,5]oxadiazol-5-yl)-3,3-dimethylchroman-4-yl)carbamate]	2420	800	–
Cc1cncc(-c2ccc3c(c2)OCC(C)(C)C3NC(=O)O[C@@H]2CN3CCC2CC3)c1 (stereo partly drawn) [Example 221, (S)-quinuclidin-3-yl (3,3-dimethyl-7-(5-methylpyridin-3-yl)chroman-4-yl)carbamate]	2800	740	–
